Assay [1] deals with Mcl-1 protein (UniProtKB primary accession number: Q07820) (Homo sapiens, UniProt Q07820). Briefly: Inhibition of Mcl-1 by fluorescence polarisation, Method 1. It is filed as binding. As to conditions: read-out: IC50 (M) Mcl-1 FP. Summed up:
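FP competition, 11-point compound titration in 5% final DMSO; protein and labelled probe at 5 nM and 1 nM final in HEPES/NaCl/Tween 20 buffer, pH 7.4.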
On the technique in general: Fluorescence polarisation rises when a labelled molecule tumbles more slowly, as on binding a larger partner.

Assay [2] concerns H929 multiple myeloma tumour line. The assay is described as follows: In vitro cytotoxicity, Microculture Tetrazolium Assay. It is filed as cell-based. As to conditions: H929 cells, 48 hours exposure, MTT, read-out: IC50 (μM) MTT H929. As to the method: The cytotoxicity studies were carried out on the H929 multiple myeloma tumour line.
The cells are distributed onto microplates and exposed to the test compounds for 48 hours.

Setting [3] is: fluorescence polarisation, Method 1, or Method 2.
The mark [4] stands for this setting: fluorescence polarisation test, Method 2 values are underlined in the patent (underlining not visible here).

Where two headings read alike, the source gives them in different places.

IC50 data for eight molecules are collected here from patent US9670227B2, “Thienopyrimidine derivatives, a process for their preparation and pharmaceutical compositions containing them” (LES LABORATOIRES SERVIER, priority 2013, dated 2017).

Mcl-1 protein, sequence (Q07820 whole entry): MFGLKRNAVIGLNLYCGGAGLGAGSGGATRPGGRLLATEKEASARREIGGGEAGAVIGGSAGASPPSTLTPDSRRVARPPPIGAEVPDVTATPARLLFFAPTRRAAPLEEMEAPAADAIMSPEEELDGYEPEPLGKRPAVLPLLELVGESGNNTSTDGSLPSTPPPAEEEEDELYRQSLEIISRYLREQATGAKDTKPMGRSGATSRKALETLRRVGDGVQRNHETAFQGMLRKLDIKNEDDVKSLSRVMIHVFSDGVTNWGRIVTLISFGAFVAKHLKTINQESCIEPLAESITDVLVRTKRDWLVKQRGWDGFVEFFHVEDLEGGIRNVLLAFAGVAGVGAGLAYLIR

As for `COc1ccccc1CC(Oc1ncnc2sc(-c3cccc(OC)c3F)c(-c3ccc(OCCN4CCN(C)CC4)c(Cl)c3C)c12)C(=O)O` [Example 561, (2R)-2-{[(5Sa)-5-{3-chloro-2-methyl-4-[2-(4-methylpiperazin-1-yl)ethoxy]phenyl}-6-(2-fluoro-3-methoxyphenyl)thieno[2,3-d]pyrimidin-4-yl]oxy}-3-(2-methoxyphenyl)propanoic acid], the IC50 – broadly, the concentration that inhibits the measured activity by half – in assay [1] (setting [3]) was 2.7e-08 M; in assay [2] (Homo sapiens, NCI-H929, 48 h) it was 0.61 µM.
`COc1cc(-c2sc3ncnc(OC(Cc4ccccc4OCc4ccnc(C(F)(F)F)n4)C(=O)O)c3c2-c2ccc(OCCN3CCN(C)CC3)c(Cl)c2C)ccc1F` [Example 382, (2R)-2-{[(5Sa)-5-{3-chloro-2-methyl-4-[2-(4-methylpiperazin-1-yl)ethoxy]phenyl}-6-(4-fluoro-3-methoxyphenyl)thieno[2,3-d]pyrimidin-4-yl]oxy}-3-(2-{[2-(trifluoromethyl)pyrimidin-4-yl]methoxy}phenyl)propanoic acid]: the IC50 in assay [1] (setting [4]) turned out to be 7.1e-09 M; in assay [2] (Homo sapiens, NCI-H929, 48 h), 0.033 µM.
For the molecule `Cc1c(-c2c(-c3ccc(Cl)o3)sc3ncnc(OC(Cc4ccccc4OCc4ccnn4CC(F)(F)F)C(=O)O)c23)ccc(OCCN2CCN(C)CC2)c1Cl` [Example 373, (2R)-2-{[6-(5-chlorofuran-2-yl)-(5Sa)-5-{3-chloro-2-methyl-4-[2-(4-methylpiperazin-1-yl)ethoxy]phenyl}thieno[2,3-d]pyrimidin-4-yl]oxy}-3-(2-{[1-(2,2,2-trifluoroethyl)-1H-pyrazol-5-yl]methoxy}phenyl)propanoic acid], the half-inhibitory concentration (IC50) in assay [1] (setting [4]) came to 4.6e-09 M; in assay [2] (Homo sapiens, NCI-H929, 48 h) it was 0.012 µM.
With `CCc1sc2ncnc(O[C@H](Cc3ccccc3)C(=O)O)c2c1-c1ccc(OCCN(C)CCO)c(Cl)c1C` [Example 411, (2R)-2-{[(5Sa)-5-(3-chloro-4-{2-[(2-hydroxyethyl)(methyl)amino]ethoxy}-2-methylphenyl)-6-ethylthieno[2,3-d]pyrimidin-4-yl]oxy}-3-phenylpropanoic acid], the IC50 came out at 3.4e-08 M in assay [1] (setting [3]) and 19 µM in assay [2].
Take `Cc1c(-c2c(-c3ccco3)sc3ncnc(OC(Cc4ccccc4OCc4ccnn4C4CCCC4)C(=O)O)c23)ccc(OCCN2CCN(C)CC2)c1Cl` [Example 262, (2R)-2-{[(5Sa)-5-{3-chloro-2-methyl-4-[2-(4-methylpiperazin-1-yl)ethoxy]phenyl}-6-(furan-2-yl)thieno[2,3-d]pyrimidin-4-yl]oxy}-3-{2-[(1-cyclopentyl-1H-pyrazol-5-yl)methoxy]phenyl}propanoic acid]: the IC50 was 3.9e-09 M in assay [1] (setting [4]) and 0.023 µM in assay [2] (Homo sapiens, NCI-H929, 48 h).
On to `COc1ccccc1CC(Oc1ncnc2sc(-c3ccco3)c(-c3ccc(OCCN(C)C)c(Cl)c3C)c12)C(=O)O` [Example 320, (2R)-2-{[(5Sa)-5-{3-chloro-4-[2-(dimethylamino)ethoxy]-2-methylphenyl}-6-(furan-2-yl)thieno[2,3-d]pyrimidin-4-yl]oxy}-3-(2-methoxyphenyl)propanoic acid], for which the IC50 in assay [1] (setting [4]) came to 6.5e-09 M; in assay [2] (Homo sapiens, NCI-H929, 48 h), 0.471 µM.
Take `CCCCn1nccc1COc1ccccc1CC(Oc1ncnc2sc(C#CCOC)c(-c3ccc(OCCN4CCN(C)CC4)c(Cl)c3C)c12)C(=O)O` [Example 613, (2R)-3-{2-[(1-butyl-1H-pyrazol-5-yl)methoxy]phenyl}-2-{[(5Sa)-5-{3-chloro-2-methyl-4-[2-(4-methylpiperazin-1-yl)ethoxy]phenyl}-6-(3-methoxyprop-1-yn-1-yl)thieno[2,3-d]pyrimidin-4-yl]oxy}propanoic acid]: the IC50 came to 3.5e-09 M in assay [1] (setting [3]) and 0.158 µM in assay [2] (Homo sapiens, NCI-H929, 48 h).
For `CCCCn1nccc1COc1ccccc1CC(Oc1ncnc2sc(-c3ccc(OC)cc3)c(-c3ccc(OCCN4CCN(C)CC4)c(Cl)c3C)c12)C(=O)O` [Example 603, (2R)-3-{2-[(1-butyl-1H-pyrazol-5-yl)methoxy]phenyl}-2-{[(5Sa)-5-{3-chloro-2-methyl-4-[2-(4-methylpiperazin-1-yl)ethoxy]phenyl}-6-(4-methoxyphenyl)thieno[2,3-d]pyrimidin-4-yl]oxy}propanoic acid], the IC50 in assay [1] (setting [3]) stood at 5e-09 M; in assay [2] (Homo sapiens, NCI-H929, 48 h) it was 0.036 µM.
